Laboratory results: patent US20110319362A1, “STAT3 LIGANDS AND THERAPEUTIC USES THEREOF” (priority 2008, published 2011)
Where two headings read alike, the source gives them in different places. Where a SMILES comes first, the peptide text is derived from it. [ ]: non-standard residue; d: D form. The star is where a group is joined. 5FAM = O=C1OC2(c3ccc(O)cc3Oc3cc(O)ccc32)c2ccc(C(=O)*)cc21; pY = N[C@@H](Cc1ccc(OP(=O)(O)O)cc1)C(=O)O; βAla = NCCC(=O)O

Tests used:
[1] = system: MDA-MB-468 cancer cell line; test: Cell growth assay (WST-8); assay type: cell-based; conditions: Homo sapiens, MDA-MB-468, 96 h, WST-8, 4 days
Method: (§1) The effect of STAT3 compounds on cell growth was evaluated by a WST-8 [2-(2-methoxy-4-nitrophenyl)-3-(4-nitrophenyl)-5-(2,4-disulfophenyl)-2H-tetrazolium, monosodium salt assay (Dojindo Molecular Technologies, Inc). Cells (3000-4000 cells in each well) were cultured in 96-well tissue culture plates in medium (200 μL) containing various concentrations of STAT3 compounds for 4 days. At the end of incubation, WST-8 dye (20 μL) was added to each well and incubated for an additional 1-3 h, and then the absorbance was measured in a microplate reader (Molecular Devices) at 450 nm. Cell growth inhibition was evaluated as the ratio of the absorbance of the sample to that of the control.

STAT3 protein = biological target: T1, STAT3 protein (Homo sapiens, UniProt P40763); test: In vitro competitive STAT3 binding assay (fluorescence polarization)
T1 construct: human STAT3 protein (residues 122-722) fused to His-tag; His-tag
Description: To quantitatively determine the binding affinities of STAT3 inhibitors to STAT3 protein, a sensitive and quantitative in vitro binding assay was developed based upon fluorescence polarization (FP) method. For this FP assay, 5-carboxyfluorescein (5-Fam) was coupled to a phosphopeptide (phospho-Tyr-Leu-Pro-Gln-Thr-Val-amide) with two beta-alanine and one glycine residues as the spacer between 5-Fam and the phosphopeptide to obtain 5-Fam-beta-Ala-beta-Ala-Gly-phospho-Tyr-Leu-Pro-Gln-Thr-Val-amide as the fluorescently tagged tracer, which was named as STT2 peptide. […] The recombinant human STAT3 protein (residues 122-722) fused to His-tag was stable and soluble.
Competitive binding experiments were carried out using 150 nM of STAT3 protein and 5 nM of STT2 peptide with different concentrations of a tested STAT3 inhibitor. For each experiment, two controls were included. One control contained STAT3 protein and STT2 peptide, and the second control contained STT2 peptide only. The polarization values were measured after 2-3 hours of incubation using an ULTRA READER (Tecan U.S. Inc., Research Triangle Park, N.C.). IC50 values, the inhibitor concentration at which 50% of the fluorescently tagged STT2 peptide is displaced by STAT3 inhibitors, was determined from a plot using nonlinear least-squares analysis using GRAPHPAD PRISM software (GraphPad Software, Inc., San Diego, Calif.). […]

[2] = system: MDA-MB-231 cancer cell line; test: Cell growth assay (WST-8); assay type: cell-based; conditions: Homo sapiens, MDA-MB-231, 96 h, WST-8, 4 days
Method: as §1

[3] = Table 2 prints no column heads, columns and unit as in Table 1, read-out: Inhibition of cell growth IC50, MDA-MB-468 cancer cell line (pro-drugs, Table 2)
[4] = FP competitive binding, fluorescently tagged STT2 peptide tracer, read-out: Binding affinities to STAT3 IC50
[5] = read-out: Inhibition of cell growth IC50, MDA-MB-468 cancer cell line
[6] = read-out: Inhibition of cell growth IC50, MDA-MB-231 cancer cell line
[7] = Table 2 prints no column heads, columns and unit as in Table 1, read-out: Inhibition of cell growth IC50, MDA-MB-231 cancer cell line (pro-drugs, Table 2)

T1 sequence (P40763 122-722): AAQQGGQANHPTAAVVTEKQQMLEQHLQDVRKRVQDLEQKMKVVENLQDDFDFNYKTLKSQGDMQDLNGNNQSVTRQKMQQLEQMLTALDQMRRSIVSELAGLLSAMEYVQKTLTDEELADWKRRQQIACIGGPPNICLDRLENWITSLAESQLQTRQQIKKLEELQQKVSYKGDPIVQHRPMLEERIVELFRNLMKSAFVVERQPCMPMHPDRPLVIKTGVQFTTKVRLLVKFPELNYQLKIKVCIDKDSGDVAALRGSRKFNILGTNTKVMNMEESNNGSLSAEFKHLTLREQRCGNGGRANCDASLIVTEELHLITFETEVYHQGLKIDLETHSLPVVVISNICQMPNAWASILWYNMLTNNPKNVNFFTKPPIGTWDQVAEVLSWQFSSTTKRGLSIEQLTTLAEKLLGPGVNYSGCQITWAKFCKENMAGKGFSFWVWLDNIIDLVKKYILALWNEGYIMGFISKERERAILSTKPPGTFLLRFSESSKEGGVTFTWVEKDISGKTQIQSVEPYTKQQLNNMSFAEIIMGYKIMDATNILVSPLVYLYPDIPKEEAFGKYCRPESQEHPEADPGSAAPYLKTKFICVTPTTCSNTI

## CC(C)OC(=O)OCOP(=O)(OCOC(=O)OC(C)C)C(F)(F)c1ccc2[nH]c(C(=O)N[C@H]3CCCCC4CC[C@@H](C(=O)NC(CCC(N)=O)C(=O)NCc5ccccc5)N4C3=O)cc2c1 (some centres unmarked) [Example 68]
[1]; [3]
  IC50: > 100 µM

## CN(C)[C@@H](Cc1ccc(OP(=O)(O)O)cc1)C(=O)N[C@H]1CCCCC2CC[C@@H](C(=O)N[C@@H](CNC(=N)N)C(=O)NCc3ccccc3)N2C1=O (some centres unmarked)
STAT3 protein; [4]
  IC50: < 100 µM
[1]; [5]
  IC50: > 100 µM
[2]; [6]
  IC50: > 50 µM

## CN(C)[C@@H](Cc1ccc(OP(=O)(O)O)cc1)C(=O)N[C@H]1CCCCC2CC[C@@H](C(=O)N[C@@H](CCC(N)=O)C(=O)NCc3ccccc3)N2C1=O (stereo in doubt) [Example 36]
STAT3 protein; [4]
  IC50: < 5 µM
[1]; [5]
  IC50: > 100 µM
[2]; [6]
  IC50: > 100 µM

## CC(C)(C)C(=O)OCOP(=O)(O)COc1ccc(C[C@H](NC(=O)OCc2ccccc2)C(=O)N[C@H]2CCCCC3CC[C@@H](C(=O)N[C@@H](CCC(N)=O)C(=O)NCc4ccccc4)N3C2=O)cc1 (some centres unmarked)
[1]; [3]
  IC50: > 50 µM
[2]; [7]
  IC50: > 50 µM

## CC(C)(C)C(=O)OCOP(=O)(OCOC(=O)C(C)(C)C)C(F)(F)c1ccc(/C=C/C(=O)N[C@H]2CCCCC3CC[C@@H](C(=O)N[C@@H](CCC(N)=O)C(=O)NCc4ccccc4)N3C2=O)cc1 (some centres unmarked)
[1]; [3]
  IC50: > 100 µM

## CC(C)(C)C(=O)OCOP(=O)(OCOC(=O)C(C)(C)C)C(F)(F)c1ccc2[nH]c(C(=O)N[C@H]3CCCCC4CC[C@@H](C(=O)NCCc5cn[nH]c5)N4C3=O)cc2c1 (some centres unmarked) [Example 63]
[1]; [3]
  IC50: < 50 µM

## CCCCCCCCCCCCCCCCNC(=O)C(CCC(N)=O)NC(=O)[C@@H]1CCC2CCCC[C@H](NC(=O)c3cc4cc(C(F)(F)P(=O)(O)O)ccc4[nH]3)C(=O)N21 (some centres unmarked) [Example 66]
STAT3 protein
  IC50: < 1 µM
[1]; [5]
  IC50: > 100 µM

## CCCCCCCCCCCCCCCCOP(=O)(O)C(F)(F)c1ccc2cc(C(=O)N[C@H]3CCCC[C@H]4CC[C@@H](C(=O)NC(CCC(N)=O)C(=O)NCc5ccccc5)N4C3=O)[nH]c2c1 (some centres unmarked)
[1]; [3]
  IC50: > 50 µM

## CC(C)C[C@H](NC(=O)[C@H](Cc1ccc(OP(=O)(O)O)cc1)NC(=O)CNC(=O)CCNC(=O)CCNC(=O)c1ccc2c(c1)C(=O)OC21c2ccc(O)cc2Oc2cc(O)ccc21)C(=O)N1CCC[C@H]1C(=O)N[C@@H](CCC(N)=O)C(=O)N[C@H](C(=O)N[C@H](C(N)=O)C(C)C)[C@@H](C)O [STT2 peptide, 5-Fam-beta-Ala-beta-Ala-Gly-phospho-Tyr-Leu-Pro-Gln-Thr-Val-amide, reference compound] ({5FAM-βAla-βAla}-G[pY]LPQTV-NH2)
STAT3 protein
  Kd: 0.047 µM

## CCCCCCCCCCCCCCCCOP(=O)(O)C(F)(F)c1ccc2cc(C(=O)N[C@H]3CCCC[C@H]4CC[C@@H](C(=O)NCCc5cn[nH]c5)N4C3=O)[nH]c2c1
[1]; [3]
  IC50: > 100 µM

## CN(C)[C@@H](Cc1ccc(CP(=O)(O)O)cc1)C(=O)N[C@H]1CCCC[C@H]2CC[C@@H](C(=O)N[C@@H](Cc3c[nH]cn3)C(=O)NCc3ccccc3)N2C1=O [Example 28]
STAT3 protein; [4]
  IC50: > 10 µM
[1]; [5]
  IC50: > 100 µM

## CC(C)(C)C(=O)OCOP(=O)(Cc1ccc(C[C@H](NC(=O)OCC2c3ccccc3-c3ccccc32)C(=O)N[C@H]2CCCCC3CC[C@@H](C(=O)N[C@@H](CCC(N)=O)C(=O)NCc4ccccc4)N3C2=O)cc1)OCOC(=O)C(C)(C)C (some centres unmarked)
[1]; [3]
  IC50: < 10 µM
[2]; [7]
  IC50: < 10 µM

## CCCCCCCCCCCCCCCCOP(=O)(OCCCCCCCCCCCCCCCC)C(F)(F)c1ccc2cc(C(=O)N[C@H]3CCCC[C@H]4CC[C@@H](C(=O)NCCc5cn[nH]c5)N4C3=O)[nH]c2c1
[1]; [3]
  IC50: > 100 µM

## CC(=O)N[C@@H](Cc1ccc(CP(=O)(O)O)cc1)C(=O)N[C@H]1CCCC[C@H]2CC[C@@H](C(=O)N[C@@H](Cc3c[nH]cn3)C(=O)NCc3ccccc3)N2C1=O [Example 27]
STAT3 protein
  IC50: > 10 µM
[2]; [6]
  IC50: > 100 µM

## CC(C)(C)C(=O)OCOP(=O)(OCOC(=O)C(C)(C)C)C(F)(F)c1ccc2[nH]c(C(=O)N[C@H]3CCCCC4CC[C@@H](C(=O)NC(CCC(N)=O)C(=O)NCc5ccccc5)N4C3=O)cc2c1 (some centres unmarked) [Example 64]
[1]; [3]
  IC50: > 100 µM

## NC(=O)CC[C@H](NC(=O)[C@@H]1CCC2CCCC[C@H](NC(=O)c3cc4cc(C(F)(F)P(=O)(O)O)ccc4[nH]3)C(=O)N21)C(=O)NCc1ccccc1 (some centres unmarked) [Example 59]
STAT3 protein
  IC50: < 1 µM
[1]; [5]
  IC50: > 100 µM

## CCCCCCCCCCCCCCCCNC(=O)C(CCC(N)=O)NC(=O)[C@@H]1CCC2CCCC[C@H](NC(=O)c3cc4cc(C(F)(F)P(=O)(OCOC(=O)C(C)(C)C)OCOC(=O)C(C)(C)C)ccc4[nH]3)C(=O)N21 (some centres unmarked) [Example 67]
[1]; [3]
  IC50: > 100 µM

## CCCCCCCCN(CCCCCCCC)[C@@H](Cc1ccc(OP(=O)(O)O)cc1)C(=O)N[C@H]1CCCCC2CC[C@@H](C(=O)N[C@@H](CCC(N)=O)C(=O)NCc3ccccc3)N2C1=O (some centres unmarked)
STAT3 protein; [4]
  IC50: < 100 µM
[2]; [6]
  IC50: > 100 µM

## CCOP(=O)(O)CCCCCC(=O)N[C@H]1CCCC[C@H]2CC[C@@H](C(=O)N[C@@H](CCC(N)=O)C(=O)NCc3ccccc3)N2C1=O [Example 23]
STAT3 protein; [4]
  IC50: > 100 µM
[2]; [6]
  IC50: > 100 µM

## CC(=O)N[C@@H](Cc1ccc(OCP(=O)(O)O)cc1)C(=O)N[C@H]1CCCCC2CC[C@@H](C(=O)N[C@@H](CCC(N)=O)C(=O)NCc3ccccc3)N2C1=O (stereo in doubt) [Example 31]
STAT3 protein
  IC50: < 10 µM
[2]; [6]
  IC50: > 100 µM

## CCCCCCCCCCCCCCCCOP(=O)(OCCCCCCCCCCCCCCCC)C(F)(F)c1ccc2cc(C(=O)N[C@H]3CCCC[C@H]4CC[C@@H](C(=O)NC(CCC(N)=O)C(=O)NCc5ccccc5)N4C3=O)[nH]c2c1 (some centres unmarked)
[1]; [3]
  IC50: < 30 µM

## CCCCCCCCCCCCCCCCN1CCN(CCC(=O)N[C@@H](Cc2ccc(OP(=O)(O)O)cc2)C(=O)N[C@H]2CCCCC3CC[C@@H](C(=O)NCCc4nnn[nH]4)N3C2=O)CC1 (some centres unmarked)
[1]; [5]
  IC50: < 50 µM
[2]; [6]
  IC50: < 50 µM

## CC(C)OC(=O)OCOP(=O)(OCOC(=O)OC(C)C)C(F)(F)c1ccc2[nH]c(C(=O)N[C@H]3CCCCC4CC[C@@H](C(=O)NCCc5cn[nH]c5)N4C3=O)cc2c1 (some centres unmarked) [Example 69]
[1]; [3]
  IC50: > 100 µM

## NC(=O)CCC(NC(=O)[C@@H]1CCC2CCCC[C@H](NC(=O)c3cc4cc(C(F)(F)P(=O)(O)O)ccc4o3)C(=O)N21)C(=O)NCc1ccccc1 (some centres unmarked) [Example 65]
STAT3 protein; [4]
  IC50: > 10 µM
[1]; [5]
  IC50: > 100 µM

## CC(C)(C)C(=O)OCOP(=O)(OCOC(=O)C(C)(C)C)C(F)(F)c1ccc(/C=C/C(=O)N[C@H]2CCCCC3CC[C@@H](C(=O)NCCc4cn[nH]c4)N3C2=O)cc1 (some centres unmarked)
[1]; [3]
  IC50: < 30 µM

## CC(C)(C)C(=O)OCOP(=O)(COc1ccc(C[C@H](NC(=O)OCc2ccccc2)C(=O)N[C@H]2CCCCC3CC[C@@H](C(=O)N[C@@H](CCC(N)=O)C(=O)NCc4ccccc4)N3C2=O)cc1)OCOC(=O)C(C)(C)C (some centres unmarked)
[1]; [3]
  IC50: > 50 µM
[2]; [7]
  IC50: > 50 µM

## CCCCCCCCCCCCCCCCOP(=O)(OCCCCCCCCCCCCCCCC)C(F)(F)c1ccc2cc(C(=O)N[C@H]3CCCC[C@H]4CC[C@@H](C(=O)N(CC)CC)N4C3=O)[nH]c2c1
[1]; [3]
  IC50: > 100 µM

## NC(=O)CC[C@H](NC(=O)[C@@H]1CCC2CCCC[C@H](NC(=O)[C@H](Cc3ccc(OP(=O)(O)O)cc3)NC(=O)CCOCCOCCOCCOCCNC(=O)CCCCC3SCC4NC(=O)NC43)C(=O)N21)C(=O)NCc1ccccc1 (some centres unmarked)
STAT3 protein
  IC50: < 1 µM

## Cn1c(C(=O)N[C@H]2CCCCC3CC[C@@H](C(=O)NC(CCC(N)=O)C(=O)NCc4ccccc4)N3C2=O)cc2cc(C(F)(F)P(=O)(O)O)ccc21 (some centres unmarked) [Example 61]
STAT3 protein; [4]
  IC50: < 5 µM
[1]; [5]
  IC50: > 100 µM

## CCOP(=O)(OCC)C(F)(F)c1ccc2c(c1)cc(C(=O)N[C@H]1CCCCC3CC[C@@H](C(=O)NC(CCC(N)=O)C(=O)NCc4ccccc4)N3C1=O)n2C (some centres unmarked) [Example 62]
[1]; [3]
  IC50: > 100 µM
